Data: paper PMC10391610, “Survivin prevents the polycomb repressor complex 2 from methylating histone 3 lysine 27” (iScience, 2023)

What was measured:
[1] = molecular target: T1, survivin (Homo sapiens, UniProt O15392); experiment: Biolayer interferometry, immobilized EZH2 peptide, survivin as analyte; assay type: binding
T1 construct: transferred to the survivin1-142 construct used in the present study; His8 tag (pHIS8 vector, thrombin-cleavable); made in house; host or cells: E. coli BL21(DE3) star
Experimental: EZH2_178-211 peptide from previous peptide microarray experiments were used as immobilized ligands using amine reactive second-generation biosensor (AR2G, Fortebio, Fremont, CA, USA). Ethanolamine was used to quench unbound AR2G surface to prevent non-specific interactions. The biosensor was incubated in MQ water for 15 minutes before use in the Octet instrument (Fortebio, Fremont, CA, USA) with the following settings: equilibration in water for 60 s and 1000 rpm shaking, activation in EDC/s-NHS for 300 s at 1000 rpm, peptide immobilization in immobilization buffer pH 6.0 (Fortebio) for 900 s and 1000 rpm (50 μM for the peptide), quenching with 1 M ethanolamine for 300 s and 1000 rpm, baseline measurement in survivin SEC buffer for 600 s and 1000 rpm, association with survivin (100 nM, 33.3 nM, 11.1 nM, and 3.7 nM concentrations) as the experiment analyte for 600 s and 1000 rpm, and dissociation step in survivin SEC buffer for 1200 s and 1000 rpm. The assay was performed at 30°C. The reference wells and reference biosensors were subtracted.
Δλ(t) values were converted to dimensionless quantities by dividing the wavelength shifts with 1 nm prior to the analysis. To develop the model, we tentatively assumed Langmuir’s 1:1 model.[85] The kinetic modelling was performed with the pymc3 python package[66] using a Bayesian model: p(KD,app|lower=10^−15,upper=10^−3)=1/upper−lower p(k−1|lower=10^−20,upper=10)=1/upper−lower k1=k−1/KD,app p(A|lower=10^−6,upper=10)=1/upper−lower p(ε|lower=10^−6,upper=1)=1/upper−lower p(Δλ(0)|μ=⟨Δλi⟩,σ=1/10∑(Δλi−⟨Δλi⟩)^2/n)=1/2πσe^−1/2σ(Δλ(t)−μ)^2;Δλ(0)∈[10^−20,+∞]
The association and dissociation phases were modelled simultaneously, and the probability of wavelength shift during association phase was modeled as: p(Δλ(t)|μ=Ac/KD,app+c(1−e^−(k1c+k−1)t),σ=ε)=1/2πσe^−1/2σ(Δλ(t)−μ)^2
The probability of wavelength shift during the dissociation phase was modelled as: p(Δλ(t)|μ=Δλ(0)e^−k−1t,σ=ε)=1/2πσe^−1/2σ(Δλ(t)−μ)^2, where A and k1 are the amplitude and rate constant of the exponential association process, respectively. The concentration of the analyte is c and KD,app is the apparent dissociation constant. The dissociation rate constant is marked with k-1. ε represents the standard deviation of Δλ(t) . The total amplitude of wavelength shift is the wavelength shift at the beginning of the dissociation phase ( Δλ(0) ). Its prior distribution is modeled by a truncated normal distribution with parameters based on an empirical Bayes estimate of the starting observations. The data points in the interval 0 to 1 s are represented by the index i. The residual plots from the Bayesian model used in the BLI experiment with peptide EZH2_172-211 and survivin are shown in Figure S6.

[2] = molecular target: T2, [U-15N]-survivin (Homo sapiens, UniProt O15392); experiment: NMR titration of [U-15N]-survivin with PRC2-derived peptides; assay type: binding
T2 construct: transferred to the survivin1-142 construct used in the present study; His8 tag (pHIS8 vector, thrombin-cleavable); made in house; host or cells: E. coli BL21(DE3) star, M9 medium with 15NH4Cl
Experimental: Uniformly [U] labeled [U-^15N] survivin was produced in H2O-based M9 medium[69] containing ^15NH4Cl as the sole nitrogen and in case of or [U-^15N,^13C] survivin D-(^13C)-glucose was additionally added as the sole carbon source, respectively (Sigma-Aldrich). Expression was induced with 0.5 mM IPTG and continued for 20–22 h at 15°C. Cell harvesting and subsequent purification followed the same protocol as for unlabeled survivin.
NMR measurements were performed on Bruker (Fällanden, Switzerland) AvanceIII 800 MHz spectrometers running Topspin 3.5 or 3.6, respectively, equipped with cryogenically cooled triple resonance probes. All NMR experiments were performed in NMR buffer (50 mM Tris, 150 mM NaCl, 1 mM DTT, pH 7.5) and at 298 K. The sequence-specific backbone assignment of survivin1-117 was taken from previously published assignment,[50] and transferred to the survivin1-142 construct used in the present study. Existing resonance assignments were confirmed, and additional resonances were assigned in a sequence-specific manner by the following experiments: [^1H,^15N]-TROSY HSQC,[70] BEST-TROSY-type HNCA and HNCO experiments.[71]
The peptides were synthetized and purified to 95% by Biomatik. The peptides were titrated into ^15N labelled survivin (0.3 mM). Standard 2D [^15N,^1H]-SOFAST-HMQC[72] experiments were recorded with inter-scan delays of 200 ms and 1025 x 256 complex points for the ^1H and ^15N dimensions, respectively, for the titrations of the different peptides with [U-^15N] survivin.
For the global analysis, the NMR signal strength was quantified by summing the 200 highest values in each 2D NMR spectrum to ensure that all peaks corresponding to the different amino acid residues in survivin are potentially covered. The titration curve was modelled using a Bayesian machine learning approach using the python library pymc3.[66] The logistic function was chosen due to computational convenience. The most important parameter of this function was coined “critical peptide concentration (cpc)” and its logarithm was modelled using a uniform a priori distribution between −10 and 1. p(log10cpc|lower=−10,upper=1)=1/upper−lower
The modelling errors related to the choice of function affect the analysis of different peptides similarly. Therefore, the relative magnitude of cpc in comparison is more reliable than the absolute magnitude of cpc itself. The concentration values were converted to dimensionless quantities by dividing with 1 mM and the NMR signal intensity was normalized for the concentration range studied.
A deterministic sigmoid (logistic) function was used to model signal decay as a function of peptide concentration. Additional a priori assumptions of the function parameters were the following: p(k|lower=−10,upper=10)=1/upper−lower p(L|lower=−3,upper=3)=1/upper−lower p(b|lower=−10,upper=10)=1/upper−lower
1000 posterior samples were collected in four parallel chains using the No-U-Turn sampling algorithm (NUTS) after 2000 tuning steps/chain.[83] The default sampling parameters were used except for “target accept” parameter, which was increased to 0.95. For the final analysis the 1000 samples from the four chains were merged to yield 4000 samples.

T1 sequence (O15392 whole entry): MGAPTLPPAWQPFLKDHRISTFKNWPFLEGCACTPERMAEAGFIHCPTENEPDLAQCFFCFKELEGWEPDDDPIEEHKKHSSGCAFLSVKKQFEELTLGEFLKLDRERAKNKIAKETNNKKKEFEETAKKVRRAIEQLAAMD
T2 sequence (O15392 whole entry): as above

For “VELVNALGQYNDDDDDDDGD DPEEREEKQKDLEDHRDDKE [EZH2_172-211, PRC2-derived peptide, EZH2 residues 172–211, synthesized by Biomatik]”, the “BLI interaction (in words)” value ([1]; EZH2_172-211-coated sensors, survivin 100, 33 and 11 nM) was “Survivin interacted with EZH2_172-211-coated sensors at concentrations of 100, 33, and 11 nM”, the “apparent dissociation constant (in words)” value ([1]; summary of posterior parameters, when the apparent dissociation constant is well defined) was “nanomolar interaction” and the “A (amplitude of association)” value ([1]; survivin 3.7 nM, posterior mean ± SD) was 0.18 ± 0.21 nm. For the same sequence, the “A (amplitude of association)” value ([1]; survivin 33 nM, posterior mean, SD 1.8×10-4) was 0.11 nm, the “A (amplitude of association)” value ([1]; survivin 100 nM, posterior mean, SD 1.1×10-4) was 0.23 nm and the critical peptide concentration ([2]; 300 μM survivin (monomer), pH 7.5, 298 K) was 2.1 µM. For the same sequence, the “<L>” value ([2]; logistic function parameter L, posterior mean (Table S10)) was 0.68, the “<b>” value ([2]; logistic function parameter b, posterior mean (Table S10)) was 0.32 and the “<k>” value ([2]; logistic function parameter k, posterior mean (Table S10)) was -1.04. For the same sequence, the “binding strength from slow exchange regime (in words)” value ([2]; new resonances at high peptide concentrations, 298 K) was “strong binding in the low nanomolar range or below”.
